Results from the NIST ThermoML archive (doi:10.1016/j.jct.2008.09.014).
Several values for one entry are separate records, joined by “and”; a condition that tells them apart may be missing. Identical values can stand only once. ± gives the expanded uncertainty stated by the source.

Conditions: Crystal; for vapor or sublimation pressure: Calculated from knudsen effusion weight loss

O=[N+]([O-])c1ccc2c(c1)CCN2 [5-nitroindoline]
mass density (298.15 K, 101.33 kPa, mass and volume measurement): 1390 ± 20 kg/m3
vapor or sublimation pressure (338.09 K): 6.24e-05 ± 3.1e-06 kPa and 6.06e-05 ± 3e-06 kPa and 6.3e-05 ± 3.2e-06 kPa
vapor or sublimation pressure (340.12 K): 7.74e-05 ± 3.9e-06 kPa and 7.36e-05 ± 3.7e-06 kPa and 7.65e-05 ± 3.8e-06 kPa
vapor or sublimation pressure (342.2 K): 0.000101 ± 5.1e-06 kPa and 9.69e-05 ± 4.9e-06 kPa and 9.36e-05 ± 4.7e-06 kPa
vapor or sublimation pressure (344.08 K): 0.0001236 ± 6.2e-06 kPa and 0.0001184 ± 5.9e-06 kPa and 0.0001211 ± 6.1e-06 kPa
vapor or sublimation pressure (346.1 K): 0.0001521 ± 7.6e-06 kPa and 0.0001453 ± 7.3e-06 kPa and 0.0001435 ± 7.2e-06 kPa
vapor or sublimation pressure (348.19 K): 0.0001876 ± 9.4e-06 kPa and 0.0001782 ± 8.9e-06 kPa and 0.0001803 ± 9e-06 kPa
vapor or sublimation pressure (350.1 K): 0.000241 ± 1.2e-05 kPa and 0.0002364 ± 1.2e-05 kPa and 0.0002307 ± 1.2e-05 kPa
vapor or sublimation pressure (352.13 K): 0.0002958 ± 1.5e-05 kPa and 0.0002905 ± 1.5e-05 kPa and 0.0002792 ± 1.4e-05 kPa
vapor or sublimation pressure (354.19 K): 0.0003738 ± 1.9e-05 kPa and 0.0003438 ± 1.7e-05 kPa and 0.0003465 ± 1.7e-05 kPa
vapor or sublimation pressure (356.1 K): 0.0004193 ± 2.1e-05 kPa and 0.0004189 ± 2.1e-05 kPa and 0.0004131 ± 2.1e-05 kPa
vapor or sublimation pressure (358.12 K): 0.0005196 ± 2.6e-05 kPa and 0.0005153 ± 2.6e-05 kPa and 0.0005004 ± 2.5e-05 kPa
vapor or sublimation pressure (360.18 K): 0.0006675 ± 3.3e-05 kPa and 0.0006261 ± 3.1e-05 kPa and 0.0006157 ± 3.1e-05 kPa

O=[N+]([O-])c1ccc2[nH]ccc2c1 [5-nitroindole]
vapor or sublimation pressure (353.15 K): 9.42e-05 ± 4.7e-06 kPa and 9.3e-05 ± 4.7e-06 kPa
vapor or sublimation pressure (355.2 K): 0.0001148 ± 5.8e-06 kPa and 0.0001117 ± 5.6e-06 kPa
vapor or sublimation pressure (357.18 K): 0.0001368 ± 6.9e-06 kPa and 0.0001345 ± 6.7e-06 kPa and 0.000131 ± 6.6e-06 kPa
vapor or sublimation pressure (359.15 K): 0.0001667 ± 8.4e-06 kPa and 0.0001723 ± 8.6e-06 kPa and 0.0001702 ± 8.5e-06 kPa
vapor or sublimation pressure (361.19 K): 0.0001997 ± 1e-05 kPa and 0.000201 ± 1e-05 kPa
vapor or sublimation pressure (363.17 K): 0.0002441 ± 1.2e-05 kPa and 0.0002364 ± 1.2e-05 kPa
vapor or sublimation pressure (365.16 K): 0.0003138 ± 1.6e-05 kPa and 0.0003041 ± 1.5e-05 kPa and 0.0002935 ± 1.5e-05 kPa
vapor or sublimation pressure (367.19 K): 0.0003798 ± 1.9e-05 kPa and 0.0003685 ± 1.8e-05 kPa and 0.0003544 ± 1.8e-05 kPa
vapor or sublimation pressure (369.17 K): 0.0004448 ± 2.2e-05 kPa and 0.000439 ± 2.2e-05 kPa and 0.0004322 ± 2.2e-05 kPa
vapor or sublimation pressure (371.17 K): 0.0005523 ± 2.8e-05 kPa and 0.0005458 ± 2.7e-05 kPa and 0.0005326 ± 2.7e-05 kPa
vapor or sublimation pressure (373.19 K): 0.0006817 ± 3.4e-05 kPa and 0.0006526 ± 3.3e-05 kPa and 0.0006311 ± 3.2e-05 kPa
vapor or sublimation pressure (375.17 K): 0.0008006 ± 4e-05 kPa and 0.0007692 ± 3.9e-05 kPa
